# Measurements as given in patent US20240327462A1, “SHORT PEPTIDES, PHARMACEUTICAL COMPOSITIONS COMPRISING THE SAME, AND USES THEREOF IN TREATING NEUROLOGICAL DISEASES” (FU JEN CATHOLIC UNIVERSITY, priority 2023, published 2024).
# Columns and labels:
# [1] = tested on: Tg(mnxl:GFP) zebrafish embryos; assay: Axonal branching of motor neurons in Tg(mnxl:GFP) zebrafish embryos; assay type: in vivo; details: microinjected into brain chamber at 20 hpf, examined at 30 hpf; compared to untreated and 16-a.a.-injected control groups
# Procedure: The branched primary motor neurons (PMN) derived from caudal primary (CaP) motoneurons located at somites from 11th to 20th of Tg(mnxl:GFP) zebrafish embryos at 30 hours post fertilization (hpf) was examined. The untreated embryos served as control group, the embryos injected with an arbitrary non-functional 16 a.a. served as mock control group, while experimental groups were embryos injected with FD1, FD2, FD3 or FD4. […] Each data was averaged from three independent experiments.
# The PBS and present peptides (i.e., FD1, FD2, FD3 and FD4) were respectively microinjected into the brain chamber of Tg (mnxl:GFP) embryos at 20 hpf. After 10 hours, the control embryos, mock control embryos and experimental embryos were monitored by anatomic microscope equipped with fluorescence system and digital camera.
# [2] = tested on: phosphorylated cofilin (p-cofilin); assay: Western blot of phosphorylated cofilin (p-cofilin) in treated NSC34 cells; assay type: cell-based, mouse; details: NSC34 cells in NogoA-overexpressed Sol8 CM with peptide, compared to PBS control normalized as 1
# Procedure: (§1) NSC34 cells (mouse Neuroblastoma x Spinal Cord-34 cell line) (RRID:CVCL_D356) were cultured in DMEM medium containing 10% FBS, 100 units/ml penicillin and 1% streptomycin. To investigate the effect of the present peptides (including FD1, FD2, FD3 and FD4) on neurons, NSC34 cells were cultivated in differentiation medium (DMEM medium containing 2.5% FBS, 100 units/ml penicillin and 1% streptomycin) for 24 hours, and then continued cultivating in CM obtained from culturing Sol8-NogoA cells (Sol8-NogoA CM) with or without addition of the present peptide (i.e., FD1, FD2, FD3 or FD4) in an amount of 66 ng/ml. The CM with or without containing the present peptide was refreshed daily. Cells were fixed with paraformaldehyde (PFA) for 48 hours, followed by measuring the length of neurite outgrowth using software based the neurites shown on microscopic image. Each data was averaged from three independent experiments and the length presented in each time was averaged from more than 100 counting cells. The effect of the present peptide on improving neurite outgrowth was determined by comparing the neurite length of NSC34 cells treated with the present peptide in Sol8-NogoA CM with that of NSC34 cells treated with phosphate buffered saline (PBS; serving as a control group) in Sol8-NogoA CM.
# The total proteins extracted from treated NSC34 cells were analyzed by sodium dodecyl-sulfate polyacrylamide gel electrophoresis (SDS-PAGE) on a 12% polyacrylamide gel. After electrophoresis, western blotting was performed. The protein levels of phosphorylated cofilin (p-cofilin) and alpha-tubulin contained in NSC34 cells cultured in medium with addition of either PBS (served as control) or the present peptide (i.e., FD1, FD2, FD3 or FD4) were determined using antibodies specifically against p-cofilin and alpha-tubulin, respectively. The intensity shown on the blot was quantified by software. Each data was averaged from three independent experiments. The relative intensity among groups was based on the comparison with that of control group set as 1.
# NSC34 cells = assay: Neurite outgrowth of NSC34 cells cultured in Sol8-NogoA conditioned medium; assay type: cell-based, mouse; details: Sol8-NogoA CM with peptide 66 ng/ml, 48 hours; PBS in Sol8-NogoA CM 53.6 μm, PBS in Sol8 CM 99.4 μm
# Procedure: . After 24-48 hours, the supernatant containing viral particles was collected and centrifuged at a speed of 1,250 rpm, followed by adding to Sol8 cells (ATCC, CRL-2174) pretreated with 8 μg/ml POLYBRENE®. 24 hour later, the fresh DMEM medium containing 10% fetal bovine serum (FBS), 100 units/ml penicillin, 1% streptomycin and 4 ug/ml puromycin was added to the Sol8 cells so as to obtain NogoA-overexpressed Sol8 cells.
# The wild-type Sol8 cells and NogoA-overexpressed Sol8 cells (Sol8-NogoA cells) were respectively cultured and differentiated in DMEM medium containing 10% FBS, 100 units/ml penicillin and 1% streptomycin. Two days later, 1 μg/μl of doxycycline was added to the medium so as to induce the expression of target genes. The culture medium was collected and the fresh medium containing doxycycline was added to the Sol8-NogoA cells every 24 hours. The collected culture medium was then centrifuged at a speed of 3,000 rpm for 5 minutes at room temperature, and the supernatant was harvested therefrom served as CM for the following assays.
# as §1
# ALS SOD1G93A mice [3] = assay: Denervation of neuromuscular junction (NMJ) in ALS SOD1G93A mice; assay type: in vivo; details: 250 ug (about 10 mg/Kg) i.v. weekly from day 60; gastrocnemius muscle of 75-day-old mice; vs PBS-injected mouse
# Procedure: (§2) Transgenic mice of the congenic strain ALS SOD1^G93A carrying human SOD1 with the pathogenic G93A mutation (a mouse model of ALS that developed stereotyped phenotypes resembling the symptoms in ALS patients) were purchased from The Jackson Laboratory (JAX). The present peptide (i.e., FD1, FD2, FD3 or FD4) was initiated to inject intravenously in an amount of 250 ug (about 10 mg/Kg) into 60-day-old ALS SOD1^G93A mice. Injection was performed weekly. Injection of PBS served as a control group. The treated mice were monitored daily and analyzed via video tracking software.
# To study the denervation of NMJ, the gastrocnemius muscles were extracted from 75-day-old ALS SOD1^G93A mice received with either PBS (control) or the present peptide (FD1, FD2, FD3 or FD4) and analyzed by immunostaining. In brief, the gastrocnemius muscles fixed with paraformaldehyde (PFA) were mounted on glass slides and treated with 2% TRITON™ for one hour. After blocking with PBS containing 5% bovine serum albumin (BSA) for 2 hours, the antibody against either synaptic vesicle protein (synapsin) or alpha-Bungarotoxin (α-BTX) was added to the slides, followed by incubating at 4° C. for 16 hours. The slides were washed with PBS containing 2% TRITON™ for three times, and then Cy2-conjugated anti-rabbit antibody and ALEXA FUOR™ 647-conjugated anti-mouse antibody were respectively added to the slides, followed by incubating at 4° C. for 16 hours. The slides were washed with PBS containing 2% TRITON™ for three times. The axon terminal of motoneurons via synapsin labeled by green fluorescent signal, while detected the acetylcholine receptor on motor endplates via α-BTX labeled by red fluorescent signal. […]. The percentage of yellow signal (green signal overlapped with red signal) among total red signal shown on the 600× magnified image area (400×400 pixels) of muscle sample from PBS- and peptide-injected SOD1-G93A ALS mouse was calculated using software. Each experiment was calculated from 13-15 images.
# ALS SOD1G93A mice [4] = assay: Survival of ALS SOD1G93A mice; assay type: in vivo, mouse; details: 250 ug (about 10 mg/Kg) i.v. weekly from day 60; for cumulated survival rate compared to PBS-injected control mice: 5 mice per group vs 7 PBS controls; for average survival days: 5 mice per group, PBS control 130.0
# Procedure: as §2
# The initial total number of ALS mice in each group (7 and 5 samples for control and FD-treated groups, respectively) was set as a 100% survival rate. During experimental period, once the ALS mouse was dead, the number and its survival days were recorded, and the cumulative survival rate was counted. When all ALS mice within the experimental group were dead, the cumulative survival rate was considered as 0%. In case that either the weight loss of a mouse was greater than 20% of original or a mouse that was not capable to eat and drink normally, euthanasia was performed and considered it as a non-survival sample. The survival days for each group were averaged from seven samples for PBS-injected control group and five samples for FD-injected experimental groups.
# ALS SOD1G93A mice [5] = assay: Moving capability of ALS model mice (SOD1 G93A); assay type: in vivo, mouse; details: 250 ug (about 10 mg/Kg) i.v. weekly from day 60; measured at 124 days after birth; vs PBS-injected control ALS mice
# Procedure: as §2
# The moving capability of ALS model mice (SOD1 G93A) injected with PBS or the present peptide (i.e., FD1, FD2, FD3 or FD4) was determined via measuring the moving trajectory of each treated mouse at 124 days after birth.
sequence,measurement,setting,value
"WEAFARGTRALMDEVV [FD3, mutant of FD1, lysine at position 9 substituted with arginine]",percentage of zebrafish embryos exhibiting branched motor neurons,[1],significantly increased
same,p-cofilin protein level,[2],significantly reduced
same,neurite length of NSC34 cells,NSC34 cells,88.2 μm
same,percentage of co-localized synapsin-1 and α-BTX (NMJ integrity),ALS SOD1G93A mice [3],significantly higher
same,cumulated survival rate compared to PBS-injected control mice,ALS SOD1G93A mice [4],not shown difference
same,average survival days,ALS SOD1G93A mice [4],130.8 days
same,moving distance,ALS SOD1G93A mice [5],significantly improved
"WEAFARGTKALMRQVV [FD4, mutant of FD1, D13 substituted with R and E14 with Q]",percentage of zebrafish embryos exhibiting branched motor neurons,[1],significantly increased
same,p-cofilin protein level,[2],significantly reduced
same,neurite length of NSC34 cells,NSC34 cells,95.8 μm
same,percentage of co-localized synapsin-1 and α-BTX (NMJ integrity),ALS SOD1G93A mice [3],significantly higher
same,cumulated survival rate compared to PBS-injected control mice,ALS SOD1G93A mice [4],longer survival time
same,average survival days,ALS SOD1G93A mice [4],139.0 days
same,moving distance,ALS SOD1G93A mice [5],significantly improved
"WEAFARGTKALMDEVV [FD1, short peptide derived from human PGK1, 16 a.a]",percentage of zebrafish embryos exhibiting branched motor neurons,[1],significantly increased
same,p-cofilin protein level,[2],significantly reduced
same,neurite length of NSC34 cells,NSC34 cells,89.2 μm
same,percentage of co-localized synapsin-1 and α-BTX (NMJ integrity),ALS SOD1G93A mice [3],significantly higher
same,cumulated survival rate compared to PBS-injected control mice,ALS SOD1G93A mice [4],longer survival time
same,average survival days,ALS SOD1G93A mice [4],140.0 days
same,moving distance,ALS SOD1G93A mice [5],significantly improved
"WEAFARGTKPLMDEVV [FD2, mutant of FD1, alanine at position 10 substituted with proline]",percentage of zebrafish embryos exhibiting branched motor neurons,[1],significantly increased
same,p-cofilin protein level,[2],significantly reduced
same,neurite length of NSC34 cells,NSC34 cells,66.6 μm
same,percentage of co-localized synapsin-1 and α-BTX (NMJ integrity),ALS SOD1G93A mice [3],significantly higher
same,cumulated survival rate compared to PBS-injected control mice,ALS SOD1G93A mice [4],longer survival time
same,average survival days,ALS SOD1G93A mice [4],147.0 days
same,moving distance,ALS SOD1G93A mice [5],significantly improved
